# Data reported in paper PMC9250534, “Synthesis and direct assay of large macrocycle diversities by combinatorial late-stage modification at picomole scale” (Nature Communications, 2022).
# Biological target: MDM2 (Homo sapiens, UniProt Q00987)
# Test: MDM2 binding screen of Libraries 3 and 4: displacement of fluorescent probe F-M8 at 750 nM macrocycle
# In short: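 Cyclic peptide scaffolds were acylated in DMSO with carboxylic acids (20 equiv.), HBTU and DABCO for 6 h at room temperature. Reactions were quenched overnight in 100 mM Tris-Cl pH 7.4, 0.01% Tween20. The fluorescein conjugate was also competed with nutlin-3a.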
# [1] = Panel b, Library 3: 63 scaffolds combinatorially acylated with 15 carboxylic acids at 30 picomole scale, displacement of fluorescent peptide probe, macrocycle 750 nM
# [2] = Panel c, Library 4: best nine scaffolds and 15 additional carboxylic acids, displacement of fluorescent probe
# Sequence of MDM2 (Q00987 whole entry): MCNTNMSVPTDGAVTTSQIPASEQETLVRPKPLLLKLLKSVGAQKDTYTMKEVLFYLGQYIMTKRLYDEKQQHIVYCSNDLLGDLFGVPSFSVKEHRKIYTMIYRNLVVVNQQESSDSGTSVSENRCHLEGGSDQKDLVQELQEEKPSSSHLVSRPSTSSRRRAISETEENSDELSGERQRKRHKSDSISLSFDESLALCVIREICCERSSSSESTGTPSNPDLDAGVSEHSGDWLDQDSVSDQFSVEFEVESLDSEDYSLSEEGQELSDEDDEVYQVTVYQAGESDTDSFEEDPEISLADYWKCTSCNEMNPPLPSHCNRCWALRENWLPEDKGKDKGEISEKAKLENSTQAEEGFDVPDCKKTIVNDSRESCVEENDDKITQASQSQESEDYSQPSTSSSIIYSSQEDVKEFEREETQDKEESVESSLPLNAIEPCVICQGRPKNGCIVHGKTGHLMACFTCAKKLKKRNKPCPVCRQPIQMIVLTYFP
SMILES,fraction of fluorescent probe displaced [1],fraction of fluorescent probe displaced [2]
CN1C(=O)[C@@H](CNC(=O)c2ccc(Cl)cc2)NC(=O)[C@H]2CCCN(C2)C(=O)CCSSCCNC(=O)[C@@H]1Cc1c[nH]c2ccccc12 [X-Nip-D-Dap-NMe-Trp + Acid 25],0.00133,
CC(Oc1cccc(Cl)c1)C(=O)NCCN1CC(=O)N[C@H](Cc2c[nH]c3ccccc23)C(=O)NCCSSCCC(=O)NCC2(CC2)C1=O (stereo partly drawn) [X-Amcp-N-Aeg-D-Trp + Acid 113],0.00133,
CC(Oc1cccc(Cl)c1)C(=O)NCCN1CC(=O)N[C@@H](Cc2cccc3ccccc23)C(=O)NCCSSCCC(=O)N2CCO[C@@H](C2)C1=O (some centres unmarked) [X-Cop-N-Aeg-1-NaI + Acid 113],0.008,
O=C(NCC1NC(=O)C2CN(CCO2)C(=O)CCSSCCNC(=O)C(Cc2c[nH]c3ccccc23)NC1=O)c1ccc(Cl)cc1 (stereo not drawn) [X-Cop-Dap-Trp + Acid 25],0.041,
O=C(/C=C/c1ccc2ccccc2c1)NCCN1CC(=O)N[C@@H](Cc2cccc3ccccc23)C(=O)NCCSSCCC(=O)NCC2(CC2)C1=O [X-Amcp-N-Aeg-1-NaI + Acid 112],0.008,
O=C(O)/C=C/c1ccc(OCc2ccccc2)cc1 [Acid 110],0.035,
O=C(/C=C/c1ccc(OCc2ccccc2)cc1)NC[C@@H]1NC(=O)[C@H]2CCCN(C2)C(=O)CCSSCCNC(=O)[C@H](Cc2c[nH]c3ccccc23)NC1=O [X-Nip-Dap-Trp + Acid 110],0.015,
CCCOc1ccc(/C=C/C(=O)NC[C@@H]2NC(=O)[C@H]3CCCN(C3)C(=O)CCSSCCNC(=O)[C@H](Cc3cccc4ccccc34)NC2=O)cc1 [X-Nip-Dap-1-NaI + Acid 118],,-0.00464
CCCOc1ccc(/C=C/C(=O)O)cc1 [Acid 118],,0.028
Cn1cc(CC2NC(=O)C(CNC(=O)C3CC3c3ccccc3)NC(=O)C3(CC3)CNC(=O)CCSSCCNC2=O)c2ccccc21 (centres unmarked) [X-Amcp-Dap-Me-Trp + Acid 105],-0.021,
Cn1cc(C[C@@H]2NC(=O)[C@@H](CNC(=O)/C=C/c3ccc4ccccc4c3)NC(=O)C3(CC3)CNC(=O)CCSSCCNC2=O)c2ccccc21 [X-Amcp-D-Dap-Me-Trp + Acid 112],0.00133,
O=C(CCS(=O)(=O)c1ccccc1)NC[C@@H]1NC(=O)[C@H]2CCCN(C2)C(=O)CCSSCCNC(=O)[C@@H](Cc2c[nH]c3ccccc23)NC1=O [X-Nip-Dap-D-Trp + Acid 114],0.00133,
O=C1CCSSCCNC(=O)[C@H](Cc2c[nH]c3ccccc23)NC(=O)[C@@H](CNC(=O)c2ccc(Cl)cc2)NC(=O)C2(CC2)CN1 [X-Amcp-D-Dap-Trp + Acid 25],-0.00533,
O=C1CCSSCCNC(=O)[C@H](Cc2c[nH]c3cc(Cl)ccc23)NC(=O)CN(CCNC(=O)c2ccc(Cl)cc2)C(=O)C2(CC2)CN1 [X-Amcp-N-Aeg-Cl-Trp + Acid 25],-0.025,
Cn1cc(C[C@@H]2NC(=O)[C@@H](CNC(=O)c3ccc4ccccc4c3)NC(=O)C3(CC3)CNC(=O)CCSSCCNC2=O)c2ccccc21 [X-Amcp-D-Dap-Me-Trp + Acid 107],0.018,
O=C(/C=C/c1ccc(Cl)cc1)NC[C@H]1NC(=O)C2(CC2)CNC(=O)CCSSCCNC(=O)[C@H](Cc2c[nH]c3cc(Cl)ccc23)NC1=O [X-Amcp-D-Dap-Cl-Trp + Acid 108],-0.025,
O=C(C=Cc1cccc(C(F)(F)F)c1)NCC1NC(=O)C2CN(CCO2)C(=O)CCSSCCNC(=O)C(Cc2c[nH]c3ccccc23)NC1=O (stereo not drawn) [X-Cop-Dap-Trp + Acid 122],,0.118
O=C1CCSSCCNC(=O)[C@H](Cc2c[nH]c3cc(Cl)ccc23)NC(=O)CN(CCNC(=O)c2cccc(Oc3ccccc3)c2)C(=O)C2(CC2)CN1 [X-Amcp-N-Aeg-Cl-Trp + Acid 111],-0.00533,
O=C(/C=C/c1ccc2ccccc2c1)NC[C@@H]1NC(=O)C2(CC2)CNC(=O)CCSSCCNC(=O)[C@@H](Cc2c[nH]c3ccccc23)NC1=O [X-Amcp-Dap-D-Trp + Acid 112],0.015,
O=C1CN(CCNC(=O)c2cccc(Oc3ccccc3)c2)C(=O)[C@@H]2CN(CCO2)C(=O)CCSSCCNC(=O)[C@H](Cc2cccc3ccccc23)N1 [X-Cop-N-Aeg-1-NaI + Acid 111],-0.00533,
O=C(/C=C/c1ccc(OCc2ccccc2)cc1)NC[C@@H]1NC(=O)[C@H]2CCCN(C2)C(=O)CCSSCCNC(=O)[C@H](Cc2cccc3ccccc23)NC1=O [X-Nip-Dap-1-NaI + Acid 110],0.008,
CN1C(=O)CN(CCNC(=O)/C=C/c2ccc(Cl)cc2)C(=O)[C@H]2CCCN(C2)C(=O)CCSSCCNC(=O)[C@@H]1Cc1c[nH]c2ccccc12 [X-Nip-N-Aeg-NMe-Trp + Acid 108],0.028,

SMILES,fraction of fluorescent probe displaced [1],fraction of fluorescent probe displaced [2]
O=C(/C=C/c1cccc(C(F)(F)F)c1)NC[C@@H]1NC(=O)[C@H]2CCCN(C2)C(=O)CCSSCCNC(=O)[C@H](Cc2ccc3ccccc3c2)NC1=O [X-Nip-Dap-2-Nal + Acid 122],,0.012
CC(=Cc1ccccc1)C(=O)NCC1NC(=O)C2CCCN(C2)C(=O)CCSSCCNC(=O)C(Cc2c[nH]c3ccccc23)NC1=O (stereo not drawn) [X-Nip-Dap-Trp + Acid 123],,0.044
O=C(NC[C@@H]1NC(=O)[C@@H]2CN(CCO2)C(=O)CCSSCCNC(=O)[C@H](Cc2c[nH]c3cc(Cl)ccc23)NC1=O)c1ccc2ccccc2c1 [X-Cop-Dap-Cl-Trp + Acid 107],0.102,
O=C(/C=C/c1ccc(OCc2ccccc2)cc1)NC[C@@H]1NC(=O)[C@@H]2CN(CCO2)C(=O)CCSSCCNC(=O)[C@H](Cc2c[nH]c3ccccc23)NC1=O [X-Cop-Dap-Trp + Acid 110],-0.012,
O=C(/C=C/c1cccc(C(F)(F)F)c1)NC[C@@H]1NC(=O)[C@H]2CCCN(C2)C(=O)CCSSCCNC(=O)[C@H](Cc2cccc3ccccc23)NC1=O [X-Nip-Dap-1-NaI + Acid 122],,0.0035
CN1C(=O)[C@@H](CNC(=O)c2ccc(Cl)s2)NC(=O)C2(CC2)CNC(=O)CCSSCCNC(=O)[C@@H]1Cc1c[nH]c2ccccc12 [X-Amcp-D-Dap-NMe-Trp + Acid 14],0.008,
O=C1CN(CCNC(=O)C2CC2c2ccccc2)C(=O)C2CN(CCO2)C(=O)CCSSCCNC(=O)C(Cc2ccc3ccccc3c2)N1 (centres unmarked) [X-Cop-N-Aeg-2-Nal + Acid 105],-0.015,
CN1C(=O)[C@H](CNC(=O)c2ccc(Cl)cc2)NC(=O)[C@H]2CCCN(C2)C(=O)CCSSCCNC(=O)[C@@H]1Cc1c[nH]c2ccccc12 [X-Nip-Dap-NMe-Trp + Acid 25],0.00133,
O=C1CN(CCNC(=O)c2ccc(Cl)cc2)C(=O)[C@@H]2CN(CCO2)C(=O)CCSSCCNC(=O)[C@H](Cc2ccc3ccccc3c2)N1 [X-Cop-N-Aeg-2-Nal + Acid 25],0.00133,
O=C(/C=C/c1ccc(OCc2ccccc2)cc1)NC[C@H]1NC(=O)C2(CC2)CNC(=O)CCSSCCNC(=O)[C@@H](Cc2c[nH]c3ccccc23)NC1=O [X-Amcp-D-Dap-D-Trp + Acid 110],-0.00533,
O=C(NC[C@H]1NC(=O)[C@H]2CCCN(C2)C(=O)CCSSCCNC(=O)[C@@H](Cc2c[nH]c3ccccc23)NC1=O)c1ccc(Cl)cc1 [X-Nip-D-Dap-D-Trp + Acid 25],0.00133,
O=C1CN(CCNC(=O)C2COc3ccccc3O2)C(=O)[C@H]2CCCN(C2)C(=O)CCSSCCNC(=O)[C@H](Cc2c[nH]c3ccccc23)N1 (some centres unmarked) [X-Nip-N-Aeg-Trp + Acid 115],0.021,
CN1C(=O)[C@H](CNC(=O)/C=C/c2ccc3ccccc3c2)NC(=O)[C@H]2CCCN(C2)C(=O)CCSSCCNC(=O)[C@@H]1Cc1c[nH]c2ccccc12 [X-Nip-Dap-NMe-Trp + Acid 112],0.015,
O=C(C=Cc1ccc(OCc2ccccc2)cc1)NCC1NC(=O)C2CN(CCO2)C(=O)CCSSCCNC(=O)C(Cc2ccc3ccccc3c2)NC1=O [X-Cop-D-Dap-2-Nal + Acid 110],0.035,
CN1C(=O)C(CNC(=O)c2cccc(Oc3ccccc3)c2)NC(=O)C2CN(CCO2)C(=O)CCSSCCNC(=O)C1Cc1c[nH]c2ccccc12 [X-Cop-D-Dap-NMe-Trp + Acid 111],0.00133,
O=C(CCS(=O)(=O)c1ccccc1)NC[C@H]1NC(=O)C2(CC2)CNC(=O)CCSSCCNC(=O)[C@@H](Cc2c[nH]c3ccccc23)NC1=O [X-Amcp-D-Dap-D-Trp + Acid 114],0.008,
Cn1cc(C[C@@H]2NC(=O)[C@H](CNC(=O)/C=C/c3ccc(F)cc3)NC(=O)[C@H]3CCCN(C3)C(=O)CCSSCCNC2=O)c2ccccc21 [X-Nip-Dap-Me-Trp + Acid 116],,0.052
CN1C(=O)[C@H](CNC(=O)C2COc3ccccc3O2)NC(=O)[C@H]2CCCN(C2)C(=O)CCSSCCNC(=O)[C@@H]1Cc1c[nH]c2ccccc12 (stereo partly drawn) [X-Nip-Dap-NMe-Trp + Acid 115],-0.012,
O=C(/C=C/c1ccc2ccccc2c1)NC[C@H]1NC(=O)C2(CC2)CNC(=O)CCSSCCNC(=O)[C@H](Cc2c[nH]c3ccccc23)NC1=O [X-Amcp-D-Dap-Trp + Acid 112],-0.00533,
O=C(/C=C/c1ccc(F)cc1)NC[C@@H]1NC(=O)C2(CC2)CNC(=O)CCSSCCNC(=O)[C@H](Cc2c[nH]c3ccccc23)NC1=O [X-Amcp-Dap-Trp + Acid 116],,0.077
CC(=Cc1ccccc1)C(=O)NCC1NC(=O)C2CN(CCO2)C(=O)CCSSCCNC(=O)C(Cc2cn(C)c3ccccc23)NC1=O (stereo not drawn) [X-Cop-Dap-Me-Trp + Acid 123],,-0.037
CC(C)c1ccc(/C=C/C(=O)NC[C@@H]2NC(=O)C3(CC3)CNC(=O)CCSSCCNC(=O)[C@H](Cc3c[nH]c4ccccc34)NC2=O)cc1 [X-Amcp-Dap-Trp + Acid 127],,0.028
